The subject of data set [1] is PLB-Ser^16 phosphorylation. The experiment in a line: PLB-Ser16 phosphorylation in isoproterenol-stimulated rat neonatal cardiomyocytes (western blot). Format: cell-based. The procedure:
FIG. 7: Disruption of the AKAP18δ-PLB complex influences PLB-Ser^16 phosphorylation. Rat neonatal cardiomyocytes treated with compounds 24 hours prior stimulation with isoproterenol (100 nM, 5 minutes).
(§1) FIG. 9: Disruption of the AKAP18δ-PLB complex influences PLB-Ser^16 phosphorylation. Rat neonatal cardiomyocytes treated with compound 2g (A) or 3d (C) 24 hours prior stimulation with isoproterenol (100 nM, 5 minutes). Rat adult cardiomyocytes treated with compound 2g (B) 1 hour prior to stimulation with isoproterenol (10 nM, 5 minutes). The histograms show levels of phosphorylated Ser^16-PLB quantified by densitometry on Western blots (relative to actin levels).
Based on data from studies in cardiomyocytes assay using a peptide that blocks AKAP18δ-PLB interaction, it was expected that effective compounds would also cause disruption of the AKAP18δ-PLB complex and decrease PLB-Ser^16 phosphorylation (Lygren et al. in EMBO Reports, volume 8, issue 11, page 1061-1067 (2007). A small selection of hits from the derivatized compounds were tested in this cell-based assay, performed as described in Lygren et al.
Briefly, compounds were added to primary cultures of rat neonatal cardiomyocytes were added compounds about 24 hour prior stimulation with isoproterenol, and amount of phosphorylated Ser^16-PLB was analyzed by western blotting using a pSer^16-PLB phosphospecific antibody. Actin was used as a loading control.
Rat neonatal cardiomyocytes treated with compounds 24 hours prior stimulation with isoproterenol (100 nM, 5 minutes).
(A western blot detects proteins with antibodies after separation by electrophoresis.)

The subject of data set [2] is PLB-Ser^16 phosphorylation. The experiment in a line: PLB-Ser16 phosphorylation in isoproterenol-stimulated rat adult cardiomyocytes. Format: cell-based. Conditions: Cardiomyocyte, 1 hour prior isoproterenol (10 nM, 5 minutes), read-out: half-maximal effect, inhibition of phospholamban phosphorylation. Here is the method: as §1
Following on Example 53, two compounds, 2g and 3d (FIGS. 9A.B and 9C, respectively), were tested in more detail for their ability to interfere with phosphorylation of phospholamban after stimulation of neonatal (FIGS. 9A and 9C) or adult (FIG. 9B) primary cultures of cardiomyocytes.

In data set [3] the test system is metabolically active cells. In words: Cell viability luminescence assay. The format is cell-based. Conditions: 24 hours incubation. The procedure:
Compound toxicity was measured in a luminescence assay that gives a signal proportional to the amount of metabolically active cells in the sample; the assay was performed as described by the supplier. All synthesized compounds were tested in the viability assay, and viability was registered at 24 hours and 72 hours.

A further data set deals with SERCA2 (Rattus norvegicus (Rat), UniProt P11507). In words: Patch clamp based SERCA2 activity assay in intact adult rat cardiomyocytes. Particulars: 10 uM mesylate salt, cell dialysis in the presence of cAMP, preliminary data. Here is the method: FIG. 10: Compound 2g regulates SERCA2-activity. A novel patch clamp based technique was performed to directly assess SERCA-activity independently of receptor stimulation in intact cardiomyocytes. By dialyzing cardiomyocytes with a fixed level of cAMP with and without presence of compound 2g, preliminary data indicates ability of compound 2g to regulate SERCA2-activity in intact adult cardiomyocytes.
Adult rat cardiomyocytes were isolated and perfused with external solution (NaCl-125, CsCl 20, D-glucose 5, MgCl2 1, CaCl2 1.8, Hepes 10, 4-aminopyridine 5, probenecid 2, pH 7.4 by NaOH). […] Whole-cell Ca fluorescence measured from voltage-clamped cells was performed with Cairn Research Optoscan Monochromator (Excitation 488 nm, emission 515 nm long pass) (Cain Research Ltd., Faverham, UK). By applying 100 ms square voltage step from −45 to 0 mV at 0.125 Hz by an Axoclamp 2B amplifier (Axon Instruments, Foster City, Calif., USA), basal Ca transients were recorded, and tau values were obtained by monoexponential fitting of the Ca^2+ extrusion phase from regular transients (τ) and caffeine transients (τcaff) after rapid applications of 10 mM caffeine. SERCA2 rate constant were calculated as: k_SERCA=1/τ−1/τcaff.
(In general: The patch-clamp technique gives a direct electrical read-out from membranes.)

These results are taken from patent US9556111B2, “Tertiary amines for use in the treatment of cardiac disorders” (Universitetet I Oslo, priority 2012, dated 2017).

Molecules are shown by their SMILES.

For `CN(C)c1ccc(CN(Cc2ccccc2)Cc2ccc(N(C)C)cc2)cc1` [Compound 2g, 4-((benzyl(4-(dimethylamino)benzyl)amino)methyl)-N,N-dimethylaniline], the IC50 in data set [1] (Rattus norvegicus, Cardiomyocyte, read-out: half-maximal effect, inhibition of phospholamban phosphorylation) is roughly 40 µM; in data set [2] it was roughly 100 µM. The “effect on PLB phosphorylation” value in data set [1] (rat neonatal cardiomyocytes, 24 hours prior isoproterenol (100 nM, 5 minutes), Example 53) is given as “concentration dependent inhibition of PLB-phosphorylation”. For the same compound, the “Effect on PLB phosphorylation in cardiomyocytes” value in data set [1] (rat neonatal cardiomyocytes, compounds 24 hours prior isoproterenol (100 nM, 5 minutes)) is reported as “++”. Besides, in data set [3], the “Viability (100 μM) 24 hours” value is on record as 0.56. Further, the SERCA2 activity entry at SERCA2 is “increased SERCA2 activity”.
